Reference: US20110039762A1, “TARGETED ANTIMICROBIAL MOIETIES” (C3 JIAN, INC., priority 2009, published 2011)
Entries after “also recorded” stand apart in the source; their conditions may differ.

Columns and labels:
E. faecalis = assay: Kill or inhibit growth/proliferation; morphology, biofilm and growth disruption (Tables 5, 6); type: cell-based, Enterococcus faecalis; design: key: A: Peptide aggregates; B: Less hyphal formation; Clumps; Diffuse clumps and small polyps; F: Diffuse growth; H: Thin; I: Growth inhibition; Microcolony formation; Rippled; Small polyps; Thick; W: Halo formation on top, microlonies on bottom; also: test concentration or dose not given here
MRSA = assay: as above; type: cell-based, Methicillin-resistant Staphylococcus aureus; design: key: A: Peptide aggregates; B: Less hyphal formation; Clumps; Diffuse clumps and small polyps; F: Diffuse growth; H: Thin; I: Growth inhibition; Microcolony formation; Rippled; Small polyps; Thick; W: Halo formation on top, microlonies on bottom
S. epidermidis = assay: as above; type: cell-based, Staphylococcus epidermidis; design: key: A: Peptide aggregates; B: Less hyphal formation; Clumps; Diffuse clumps and small polyps; F: Diffuse growth; H: Thin; I: Growth inhibition; Microcolony formation; Rippled; Small polyps; Thick; W: Halo formation on top, microlonies on bottom
S. pneumoniae = assay: as above; type: cell-based, Streptococcus pneumoniae; design: key: A: Peptide aggregates; B: Less hyphal formation; Clumps; Diffuse clumps and small polyps; F: Diffuse growth; H: Thin; I: Growth inhibition; Microcolony formation; Rippled; Small polyps; Thick; W: Halo formation on top, microlonies on bottom; also: test concentration or dose not given here
C. jejuni = assay: as above; type: cell-based, Campylobacter jejuni; design: key: A: Peptide aggregates; B: Less hyphal formation; Clumps; Diffuse clumps and small polyps; F: Diffuse growth; H: Thin; I: Growth inhibition; Microcolony formation; Rippled; Small polyps; Thick; W: Halo formation on top, microlonies on bottom; also: test concentration or dose not given here
E. coli = assay: as above; type: cell-based, Escherichia coli; design: key: A: Peptide aggregates; B: Less hyphal formation; Clumps; Diffuse clumps and small polyps; F: Diffuse growth; H: Thin; I: Growth inhibition; Microcolony formation; Rippled; Small polyps; Thick; W: Halo formation on top, microlonies on bottom; also: test concentration or dose not given here
P. aeruginosa = assay: as above; type: cell-based, Pseudomonas aeruginosa; design: key: A: Peptide aggregates; B: Less hyphal formation; Clumps; Diffuse clumps and small polyps; F: Diffuse growth; H: Thin; I: Growth inhibition; Microcolony formation; Rippled; Small polyps; Thick; W: Halo formation on top, microlonies on bottom; also: test concentration or dose not given here
microorganisms = assay: Peptides having multiple activities (targeting/binding, antimicrobial, growth or phenotype altering)
Excerpt: In certain embodiments, peptides described herein can have multiple activities. Thus for example, a peptide can have both binding/targeting activity and antimicrobial activity. Such peptides can be used, e.g., in a chimeric construct, for any or all of these properties. Thus, for example, a peptide designated “B” in Table 8 can be used as a targeting peptide. If it is also designated G or M it can also be used for antimicrobial activity.

C. jeikeium = assay: Kill or inhibit growth/proliferation; morphology, biofilm and growth disruption (Tables 5, 6); type: cell-based, Corynebacterium jeikeium; design: key: A: Peptide aggregates; B: Less hyphal formation; Clumps; Diffuse clumps and small polyps; F: Diffuse growth; H: Thin; I: Growth inhibition; Microcolony formation; Rippled; Small polyps; Thick; W: Halo formation on top, microlonies on bottom; also: test concentration or dose not given here
[1] = system: microorganisms (e.g., bacteria, yeasts, fungi); assay: Targeting peptide binding to target microorganisms (Table 3); conditions: microorganism(s) the targeting peptide binds, preferably 1x PBS
B. subtilis = assay: Kill or inhibit growth/proliferation; morphology, biofilm and growth disruption (Tables 5, 6); type: cell-based, Bacillus subtilis; design: key: A: Peptide aggregates; B: Less hyphal formation; Clumps; Diffuse clumps and small polyps; F: Diffuse growth; H: Thin; I: Growth inhibition; Microcolony formation; Rippled; Small polyps; Thick; W: Halo formation on top, microlonies on bottom; also: test concentration or dose not given here
M. luteus = assay: as above; type: cell-based, Micrococcus luteus; design: key: A: Peptide aggregates; B: Less hyphal formation; Clumps; Diffuse clumps and small polyps; F: Diffuse growth; H: Thin; I: Growth inhibition; Microcolony formation; Rippled; Small polyps; Thick; W: Halo formation on top, microlonies on bottom; also: test concentration or dose not given here
[2] = binding in aqueous buffers depending on peptide solubility
For Organism, effect in this document: test concentration or dose not given here.

| Substance | Organism, effect (E. faecalis) | Organism, effect (MRSA) | Organism, effect (S. epidermidis) | Organism, effect (S. pneumoniae) | Organism, effect (C. jejuni) | Organism, effect (E. coli) | Organism, effect (P. aeruginosa) | Activities (microorganisms) | Organism, effect (C. jeikeium) | Target(s) ([1]; peptide binding conducted in aqueous buffers varied by peptide solubility) | Organism, effect (B. subtilis) | Organism, effect (M. luteus) | Target(s) [1, 2] |
| --- | --- | --- | --- | --- | --- | --- | --- | --- | --- | --- | --- | --- | --- |
| ALCSVIKAIELGIINVHLQ [PF-366] | E. faecalis (C) | MRSA (D) | S. epidermidis (R) | S. pneumoniae (C) | C. jejuni (D) | E. coli (C) | P. aeruginosa (A) | G B |  |  |  |  |  |
| LNFRAENKILEKIHISLIDTVEGSA [PF-575] |  |  |  | S. pneumoniae (A) | C. jejuni (R) |  | P. aeruginosa (A) | G B | C. jeikeium (A) | M. luteus and E. coli and C. albicans and MRSA and S. pneumoniae and E. faecalis and C. jeikeium |  |  |  |
| PF-063: peptide having multiple activities (chain 1 IAAIIVLVLFQKGLLQIFNWILIQLQ; chain 2 IAAIIVLVLFQKGLLQIFNWILIQLQ; Peptide with targeting and/or antimicrobial activity) |  | MRSA (M) | S. epidermidis (R) | S. pneumoniae (D) | C. jejuni (D) |  | P. aeruginosa (A) | G B | C. jeikeium (D) |  | B. subtilis (C) | M. luteus (R) |  |
| PF-067: peptide having multiple activities (DLIVKVHICFVVKTASGYCYLNKREAQAAI; Peptide with targeting and/or antimicrobial activity) |  | MRSA (M) | S. epidermidis (D) | S. pneumoniae (D) | C. jejuni (D) |  | P. aeruginosa (A) | G B | C. jeikeium (D) |  | B. subtilis (C) | M. luteus (R) |  |
| PF-128: peptide having multiple activities (GIKVVAARFEEIQFSENFDSIILA; Peptide with targeting and/or antimicrobial activity) |  |  | S. epidermidis (D) |  |  |  | P. aeruginosa (C) | G B |  |  |  |  | M. luteus; also recorded: P. aeruginosa; also recorded: E. faecalis |
| PF-204: peptide having multiple activities (ALQKQDMNLPSVKNQLVFLKSTG; Peptide with targeting and/or antimicrobial activity) |  |  | S. epidermidis (C) |  |  |  | P. aeruginosa (H) | G B | C. jeikeium (D) |  |  | M. luteus (C) | S. epidermidis; also recorded: P. mirabilis; also recorded: E. coli; also recorded: P. aeruginosa; also recorded: C. albicans; also recorded: C. jejuni |
| PF-355: peptide having multiple activities (chain 1 WIAIGLLLYFSLKNQ; chain 2 WIAIGLLLYFSLKNQ; Peptide with targeting and/or antimicrobial activity) | E. faecalis (D) | MRSA (A) | S. epidermidis (C) | S. pneumoniae (D) | C. jejuni (D) | E. coli (C) | P. aeruginosa (A) | G B |  |  |  |  |  |
| PF-356: peptide having multiple activities (chain 1 VSIKIGAIVIGMIGLMELLTE; chain 2 VSIKIGAIVIGMIGLMELLTE; Peptide with targeting and/or antimicrobial activity) | E. faecalis (R) | MRSA (C) | S. epidermidis (S) | S. pneumoniae (R) | C. jejuni (D) |  | P. aeruginosa (A) | G B |  |  |  |  |  |
| PF-380: peptide having multiple activities (chain 1 KKIIPLITLFVVTLVG; chain 2 KKIIPLITLFVVTLVG; Peptide with targeting and/or antimicrobial activity) | E. faecalis (C) | MRSA (D) | S. epidermidis (C) | S. pneumoniae (D) | C. jejuni (D) | E. coli (C) | P. aeruginosa (A) | G B |  |  |  |  |  |
| PF-411: peptide having multiple activities (WVAVAILLNIALQTQLT; Peptide with targeting and/or antimicrobial activity) | E. faecalis (D) | MRSA (D) | S. epidermidis (C) | S. pneumoniae (D) | C. jejuni (D) | E. coli (C) | P. aeruginosa (A) | G B |  |  |  |  |  |
| PF-432: peptide having multiple activities (FNGDSEFFLCIAF; Peptide with targeting and/or antimicrobial activity) | E. faecalis (D) | MRSA (M) | S. epidermidis (M) | S. pneumoniae (D) | C. jejuni (D) | E. coli (R) | P. aeruginosa (A) | G B |  |  |  |  |  |
| PF-454: peptide having multiple activities (chain 1 MSVFVPVTNIFMFIMSPIFNVNLLHFKVYI; chain 2 MSVFVPVTNIFMFIMSPIFNVNLLHFKVYI; Peptide with targeting and/or antimicrobial activity) | E. faecalis (C) | MRSA (C) | S. epidermidis (C) | S. pneumoniae (R) |  | E. coli (R) | P. aeruginosa (H) | G B |  |  |  |  |  |
| PF-536 (MEPIPHIMIIANQIGIIIEKA; Peptide with targeting and/or antimicrobial activity) | E. faecalis (C) | MRSA (C) | S. epidermidis (C) | S. pneumoniae (M) |  | E. coli (R) | P. aeruginosa (H) |  |  |  |  |  |  |
| PF-577: peptide having multiple activities (chain 1 PFETRESFRVPVIGILGGWDYFMHP; chain 2 PFETRESFRVPVIGILGGWDYFMHP; Peptide with targeting and/or antimicrobial activity) | E. faecalis (A) | MRSA (M) | S. epidermidis (A) | S. pneumoniae (R) | C. jejuni (R) | E. coli (A) | P. aeruginosa (A) | G B |  |  |  |  |  |
